Experiments:
[1] = Crystallisation optimisation: slurries in acetonitrile and isopropanol, epimers in solution; format: physicochemical; conditions: 20° C., 200 mg 33:67 (R):(S) mixture
Method: The enrichment provided by acetonitrile and isopropanol were evaluated at a range of concentrations and temperatures (see Table 2). Two types of experiments were conducted: simple slurries (20° C.) in different volumes and slurries/recrystallisations at 80° C. For the experiments 200 mg of the diastereomeric mixture (33:67 (R):(S)) was suspended in the solvents and volume indicated below and optionally heated to reflux and cooled to 20° C. The suspensions were stirred overnight and isolated. The relative proportions of the two epimers present in both the solution and in the solid cake were determined by HPLC.

[2] = Solvent screening: amounts of the two epimers in solution after slurrying NUC-1031 mixture; format: physicochemical; conditions: for epimer in solution: 33:67 (R):(S) mixture in 1 mL, stirred overnight
Method: First a solvent screening was conducted with 17 different solvents (see Table 1). Approximately 25 mg of a diastereomeric mixture (33:67 (R):(S)) of NUC-1031 was suspended in the listed solvents (1 mL) and stirred overnight. In case dissolution occurred more solid was added. The suspensions were sedimented and the relative amounts of the two diastereoisomers in solution was determined by HPLC.

[3] = system: isolated human hepatic cells; experiment: Half-life on incubation with isolated human hepatic cells; format: in vitro ADME
Text: The longer half-life associated with (R)-isomer indicates a lower intrinsic clearance and should result in a different pharmacokinetic and pharmacodynamic profile to the (S)-isomer which may offer some benefits.

[4] = Solubility in mixtures of polar organic solvents with water; format: physicochemical
Text: It has recently been discovered that the (S)-epimer 3 of gemcitabine-[phenyl-benzoxy-L-alaninyl)]-phosphate has sufficient solubility in mixtures of a number of polar organic solvents with water to render it suitable for formulation and administration as a therapeutic agent. […] In certain solvent mixtures the difference in solubility between the (S)-epimer and the (R)-epimer is over 100 fold. It is expected therefore that more clinically effective, practical and patient friendly administration methods can be developed using the (S)-epimer than can be developed using the (R)-epimer or using the mixture. It is thus desirable to be able to provide gemcitabine-[phenyl-benzoxy-L-alaninyl)]-(S)-phosphate 3 in substantially diastereoisomerically pure form.

[5] = Crystallisation optimisation: slurries in acetonitrile and isopropanol, epimers in solution; format: physicochemical; conditions: 83° C. (heated to reflux, cooled to 20° C.), 200 mg 33:67 (R):(S) mixture
Solubility in water = format: physicochemical; conditions: regardless of salt content or pH
Text: It also has implications for the development of efficient manufacturing processes which will allow NUC-1031 to be produced cost effectively.

SMILES | epimer in solution ([1]; ACN solution, 5 mL) [mg/mL] | epimer in solution ([1]; ACN solution, 10 mL) [mg/mL] | epimer in solution ([1]; ACN solution, 15 mL) [mg/mL] | epimer in solution ([1]; IPA solution, 5 mL) [mg/mL] | epimer in solution ([1]; IPA solution, 10 mL) [mg/mL] | epimer in solution ([1]; IPA solution, 15 mL) [mg/mL] | epimer in solution ([2]; solvent ACN) [mg/mL] | epimer in solution ([2]; solvent EtOAc) [mg/mL] | epimer in solution ([2]; solvent EtOH) [mg/mL] | epimer in solution ([2]; solvent H2O) [mg/mL] | epimer in solution ([2]; solvent IPA) [mg/mL] | epimer in solution ([2]; solvent MEK) [mg/mL] | epimer in solution ([2]; solvent MIBK) [mg/mL] | epimer in solution ([2]; solvent MeOH) [mg/mL] | epimer in solution ([2]; solvent MeTHF) [mg/mL] | epimer in solution ([2]; solvent TBME) [mg/mL] | epimer in solution ([2]; solvent THF) [mg/mL] | epimer in solution ([2]; solvent acetone) [mg/mL] | epimer in solution ([2]; solvent iPrOAc) [mg/mL] | epimer in solution ([2]; solvent nBuOH) [mg/mL] | other results
C[C@H](N[P@@](=O)(OC[C@H]1O[C@@H](n2ccc(N)nc2=O)C(F)(F)C1O)Oc1ccccc1)C(=O)OCc1ccccc1 (single isomer, unassigned; epimer 2) [(R)-epimer] | 0.67 | 0.59 | 0.63 | 0.77 | 0.77 | 0.58 | 1.1 | 0.7 | 4.9 | 0.5 | 1.6 | 0.9 | 0.7 | 22.8 | 0.6 | 0.1 | 3.0 | 2.2 | 0.6 | 1.6 | epimer in solution ([2]; solvent nPrOH): 2.2 mg/mL; epimer in solution ([2]; solvent nheptane): 0.4 mg/mL; epimer in solution ([2]; solvent toluene): 0.2 mg/mL; half-life relative to that of the (S)-epimer [3]: four times; solubility compared with the (S)-epimer ([4]; mixtures of polar organic solvents with water): considerably lower; epimer in solution ([5]; ACN solution, 5 mL): 1.01 mg/mL; epimer in solution ([5]; ACN solution, 10 mL): 1.09 mg/mL; epimer in solution ([5]; ACN solution, 15 mL): 1.19 mg/mL; epimer in solution ([5]; IPA solution, 5 mL): 1.42 mg/mL; epimer in solution ([5]; IPA solution, 10 mL): 3.38 mg/mL
C[C@H](N[P@](=O)(OC[C@H]1O[C@@H](n2ccc(N)nc2=O)C(F)(F)C1O)Oc1ccccc1)C(=O)OCc1ccccc1 (single isomer, unassigned; epimer 2) [(S)-epimer] | 9.04 | 8.85 | 9.74 | 17.75 | 12.98 | 7.16 | 10.0 | 1.1 | 15.7 | 0.9 | 13.0 | 3.2 | 1.0 | 35.1 | 1.2 | 0.1 | 6.6 | 7.7 | 0.6 | 14.4 | solubility compared with the (R)-epimer ([2]; in all solvents tested): higher solubility; epimer in solution ([2]; solvent nPrOH): 10.8 mg/mL; epimer in solution ([2]; solvent nheptane): 0.4 mg/mL; epimer in solution ([2]; solvent toluene): 0.7 mg/mL; difference in solubility between the (S)-epimer and the (R)-epimer ([4]; in certain solvent mixtures): over 100 fold; epimer in solution ([5]; ACN solution, 5 mL): 11.03 mg/mL; epimer in solution ([5]; ACN solution, 10 mL): 11.00 mg/mL; epimer in solution ([5]; ACN solution, 15 mL): 10.67 mg/mL; epimer in solution ([5]; IPA solution, 5 mL): 18.20 mg/mL; epimer in solution ([5]; IPA solution, 10 mL): 12.83 mg/mL
C[C@H](NP(=O)(OC[C@H]1O[C@@H](n2ccc(N)nc2=O)C(F)(F)C1O)Oc1ccccc1)C(=O)OCc1ccccc1 (stereo partly shown) [NUC-1031] | – | – | – | – | – | – | – | – | – | – | – | – | – | – | – | – | – | – | – | – | solubility in water (Solubility in water): essentially insoluble in water

Source: patent US10669300B2, “Methods of separating gemcitabine-phosphate diastereoisomers” (NuCana plc, priority 2014, dated 2020)
